Experimental data reported in the supplement of paper PMC11061612.

Experiments:
Test in all cases: Bliss excess, mean over the matrix (fraction); higher = more synergy
[1] = system: AN3-CA (Endometrial Carcinoma)
In short: (§1)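 Cell lines in DMEM/F12 or RPMI with 10% FBS were plated in 1536-well plates, held 24 hours at 37°C, 5% CO2, then given two-drug dose matrices for 72 hours (DMSO typically 0.2%). Viability was read by CellTiter-Glo 2.0 luminescence and scaled as inhibition from 0 (vehicle wells) to 1 (blank wells). Combination Emax is the second-highest inhibition in the matrix; Bliss excess is observed combination effect minus expected EA + EB − EA·EB, EA and EB being single-agent effects.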

[2] = system: BALL-1 (B-Lymphoblastic Leukemia)
In short: as §1

[3] = system: Becker (Low Grade Glioma)
In short: as §1

[4] = system: CML-T1 (Chronic Myelogenous Leukemia)
In short: as §1

[5] = system: Calu-6 (Non-Small Cell Lung Carcinoma)
In short: as §1

[6] = system: EB-3 (Burkitt's Lymphoma)
In short: as §1

HuO-3N1 (Osteosarcoma) = system: HuO-3N1 (Osteosarcoma)
In short: as §1

[7] = system: LAMA-84 (Chronic Myelogenous Leukemia)
In short: as §1

[8] = system: LOUCY (T-Lymphoblastic Leukemia)
In short: as §1

[9] = system: NCI-H1155 (Non-Small Cell Lung Carcinoma)
In short: as §1

[10] = system: NCI-H1623 (Lung Adenocarcinoma)
In short: as §1

[11] = system: NCI-H1755 (Lung Adenocarcinoma)
In short: as §1

[12] = system: NCI-H196 (Small Cell Lung Carcinoma)
In short: as §1

[13] = system: OV-90 (Ovarian Carcinoma)
In short: as §1

[14] = system: PANC-02-03 (Pancreatic Carcinoma)
In short: as §1

[15] = system: RERF-LC-KJ (Lung Adenocarcinoma)
In short: as §1

[16] = system: RMG-I (Ovarian Carcinoma)
In short: as §1

[17] = system: SNU-175 (Colorectal Carcinoma)
In short: as §1

[18] = system: SW684 (Other Solid Carcinomas)
In short: as §1

SMILES	Bliss excess [1]	Bliss excess [2]	Bliss excess [3]	Bliss excess [4]	Bliss excess [5]	Bliss excess [6]	Bliss excess (HuO-3N1 (Osteosarcoma))	Bliss excess [7]	Bliss excess [8]	Bliss excess [9]	Bliss excess [10]	Bliss excess [11]	Bliss excess [12]	Bliss excess [13]	Bliss excess [14]	Bliss excess [15]	Bliss excess [16]	Bliss excess [17]	Bliss excess [18]
NC1(C(=O)N[C@@H](CCO)c2ccc(Cl)cc2)CCN(c2ncnc3[nH]ccc23)CC1 [Capivasertib] + C[C@@H]1COCCN1C2=NC(=NC(=C2)C3(CC3)[S@](=N)(=O)C)C4=C5C=CNC5=NC=C4 [AZD6738] (first compound max 10 µM, 7x7, partner max 10 µM)	-0.0526	-0.0066	-0.0135	-0.0774	-0.0777	-0.0579	-0.11	0.0117	-0.0482	-0.0362	-0.0522	-0.0244	-0.0265	-0.0159	-0.004	-0.0722	-0.0371	-0.0099	-0.0465
NC1(C(=O)N[C@@H](CCO)c2ccc(Cl)cc2)CCN(c2ncnc3[nH]ccc23)CC1 [Capivasertib] + Cn1cnc2c(F)c(Nc3ccc(Br)cc3Cl)c(C(=O)NOCCO)cc21 [Selumetinib] (first compound max 10 µM, 7x7, partner max 10 µM)	-0.0016	0.0317	0.0788	0.0217	0.0038	-0.0424	-0.0321	0.0548	0.0806	0.0293	0.0623	0.0295	-0.0436	-0.0313	0.0589	0.0517	0.0235	-0.0408	0.0495
COc1nnc2ccc(N3CCC(c4ccc(OCCN5CCN(C)C(=O)[C@H]5C)cc4)CC3)nn12 [AZD5153] + C=CCn1c(=O)c2cnc(Nc3ccc(N4CCN(C)CC4)cc3)nc2n1-c1cccc(C(C)(C)O)n1 [AZD1775] (first compound max 1 µM, partner max 1 µM)	-0.0624	-0.0234	-0.0421	-0.116	-0.0511	-0.114	-0.0584	-0.0311	-0.0527	0.0523	-0.0101	-0.0088	-0.0574	-0.0367	-0.0823	-0.0224	-0.0187	-0.0647	-0.054
COc1cc2ncnc(Nc3ccc(F)c(Cl)c3)c2cc1OCCCN1CCOCC1 [Gefitinib] + CC(C)n1c(=O)n(C)c2cnc3cc(F)c(-c4ccc(OCCCN5CCCCC5)nc4)cc3c21 [AZD1390] (first compound max 10 µM, 7x7, partner max 0.3 µM)	-0.0592	-0.07	-0.0247	-0.0252	-0.0556	-0.0192	-0.0756	-0.0328	0.0024	-0.056	-0.0268	-0.0854	-0.0685	-0.0468	-0.0431	-0.0807	-0.0346	-0.0457	-0.0557
NC1(C(=O)N[C@@H](CCO)c2ccc(Cl)cc2)CCN(c2ncnc3[nH]ccc23)CC1 [Capivasertib] + COc1nnc2ccc(N3CCC(c4ccc(OCCN5CCN(C)C(=O)[C@H]5C)cc4)CC3)nn12 [AZD5153] (first compound max 10 µM, 7x7, partner max 1 µM)	0.0778	-0.0339	0.0414	-0.0125	-0.0081	-0.0529	0.0531	-0.0038	0.0912	0.0992	0.0638	-0.0278	0.0227	0.0045	0.0132	-0.0437	-0.0448	-0.055	0.004
COc1nnc2ccc(N3CCC(c4ccc(OCCN5CCN(C)C(=O)[C@H]5C)cc4)CC3)nn12 [AZD5153] + CCN(CCO)CCCOc1ccc2c(Nc3cc(CC(=O)Nc4cccc(F)c4)[nH]n3)ncnc2c1 [AZD2811] (first compound max 1 µM, 7x7, partner max 1 µM)	-0.0375	0.0056	0.0134	-0.0571	-0.0563	-0.0701	-0.0705	0.0006	0.0305	0.0177	-0.0117	-0.0058	-0.0285	-0.0226	-0.0809	-0.075	-0.0479	-0.112	-0.0767
C[C@@H](c1ccc2nccn2c1)n1nnc2ncc(-c3cnn(C)c3)nc21 [Savolitinib] + CC1(C)CCC(CN2CCN(c3ccc(C(=O)NS(=O)(=O)c4ccc(NCC5CCOCC5)c([N+](=O)[O-])c4)c(Oc4cnc5[nH]ccc5c4)c3)CC2)=C(c2ccc(Cl)cc2)C1 [Venetoclax] (first compound max 1 µM, 7x7, partner max 1 µM)	-0.0499	-0.0306	-0.0182	-0.0156	-0.0539	-0.0614	-0.0708	-0.0111	-0.0803	-0.0365	-0.046	-0.05	-0.067	-0.063	-0.0231	-0.077	-0.0756	-0.0764	-0.0461
NC1(C(=O)N[C@@H](CCO)c2ccc(Cl)cc2)CCN(c2ncnc3[nH]ccc23)CC1 [Capivasertib] + CC(C)n1c(=O)n(C)c2cnc3cc(F)c(-c4ccc(OCCCN5CCCCC5)nc4)cc3c21 [AZD1390] (first compound max 10 µM, 7x7, partner max 0.3 µM)	-0.0057	-0.0292	-0.0136	0.003	-0.0391	0.0022	-0.101	-0.0119	-0.0101	-0.031	-0.024	-0.0407	-0.0439	-0.0325	-0.013	-0.0017	-0.062	-0.0346	-0.0057
C[C@@H](c1ccc2nccn2c1)n1nnc2ncc(-c3cnn(C)c3)nc21 [Savolitinib] + Cc1c2c(nn1C)CSCc1cc(n(C)n1)CSc1cc(c3ccccc3c1)OCCCc1c(C(=O)O)n(C)c3c-2c(Cl)ccc13 [AZD5991] (first compound max 1 µM, 7x7, partner max 1 µM)	-0.0365	-0.052	0.0103	0.0118	-0.0124	-0.076	-0.0631	0.0136	0.0369	-0.0188	-0.0195	-0.0361	-0.0675	-0.0519	-0.0374	0.012	-0.0327	-0.0713	-0.0608
C=CCn1c(=O)c2cnc(Nc3ccc(N4CCN(C)CC4)cc3)nc2n1-c1cccc(C(C)(C)O)n1 [AZD1775] + C1CN(CCC1(C(=O)N[C@@H](CCO)C2=CC=C(C=C2)Cl)N)C3=NC=NC4=C3C=CN4 [Capivasertib] (first compound max 3 µM, partner max 3 µM)	0.0797	0.0591	-0.0716	-0.0178	0.0034	-0.111	-0.0033	0.0017	0.0157	0.0056	-0.0576	-0.0691	-0.118	-0.0235	-0.018	-0.0117	-0.0349	0.0244	-0.0351
Cn1cnc2c(F)c(Nc3ccc(Br)cc3Cl)c(C(=O)NOCCO)cc21 [Selumetinib] + CC(C)n1c(=O)n(C)c2cnc3cc(F)c(-c4ccc(OCCCN5CCCCC5)nc4)cc3c21 [AZD1390] (first compound max 10 µM, 7x7, partner max 0.3 µM)	-0.0669	-0.0156	-0.007	-0.0441	-0.0588	-0.0806	-0.0618	-0.0309	-0.0166	-0.0679	0.0076	0.0153	-0.0561	0.0131	-0.0139	-0.0073	-0.0268	0.0063	-0.0616
Cn1cnc2c(F)c(Nc3ccc(Br)cc3Cl)c(C(=O)NOCCO)cc21 [Selumetinib] + CCN(CCO)CCCOc1ccc2c(Nc3cc(CC(=O)Nc4cccc(F)c4)[nH]n3)ncnc2c1 [AZD2811] (first compound max 10 µM, 7x7, partner max 1 µM)	0.0242	0.0638	-0.0119	0.0685	-0.0026	-0.0415	-0.106	0.0237	-0.0979	0.0907	0.0134	0.0386	-0.057	-0.0252	-0.0144	-0.003	-0.0385	-0.0253	-0.036
COc1nnc2ccc(N3CCC(c4ccc(OCCN5CCN(C)C(=O)[C@H]5C)cc4)CC3)nn12 [AZD5153] + CN(CC[C@H](CSC1=CC=CC=C1)NC2=C(C=C(C=C2)S(=O)(=O)NC(=O)C3=CC=C(C=C3)N4CCC(CC4)[C@H](C5=CC=CC=C5C6=CC=C(C=C6)Cl)O)S(=O)(=O)C(F)(F)F)CCO [AZD4320] (first compound max 1 µM, 7x7, partner max 1 µM)	0.0161	-0.0008	–	–	-0.0429	–	0.0645	–	–	0.0603	-0.0087	–	0.0277	–	–	-0.0066	–	0.002	–
CC(=O)c1c(C)c2cnc(Nc3ccc(N4CCNCC4)cn3)nc2n(C2CCCC2)c1=O [Palbociclib] + CN(CC[C@H](CSC1=CC=CC=C1)NC2=C(C=C(C=C2)S(=O)(=O)NC(=O)C3=CC=C(C=C3)N4CCC(CC4)[C@H](C5=CC=CC=C5C6=CC=C(C=C6)Cl)O)S(=O)(=O)C(F)(F)F)CCO [AZD4320] (first compound max 10 µM, 7x7, partner max 1 µM)	0.0108	-0.0446	–	–	0.0279	–	-0.0289	–	–	0.0351	-0.0783	–	-0.0489	–	–	-0.0742	–	-0.0082	–
C[C@@H](c1ccc2nccn2c1)n1nnc2ncc(-c3cnn(C)c3)nc21 [Savolitinib] + CN(CC[C@H](CSC1=CC=CC=C1)NC2=C(C=C(C=C2)S(=O)(=O)NC(=O)C3=CC=C(C=C3)N4CCC(CC4)[C@H](C5=CC=CC=C5C6=CC=C(C=C6)Cl)O)S(=O)(=O)C(F)(F)F)CCO [AZD4320] (first compound max 1 µM, 7x7, partner max 1 µM)	-0.0575	-0.0078	–	–	-0.005	–	-0.0513	–	–	-0.0513	-0.0231	–	-0.0847	–	–	-0.0454	–	-0.045	–
